Assay results published in PubChem BioAssay (NCI).
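Dose response: 5 concentrations. Exposure: 48 h. Format: 96-well plates. Endpoint: linear interpolation; highest concentration if not reached. GI50 = concentration required for 50% inhibition of growth. Definition used: TGI = concentration required for complete inhibition of growth.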

Legend:
Assay in all cases: DTP human tumour cell line panel, 48 h
IGROV1 ovarian = test system: IGROV1 ovarian
HT29 colon = test system: HT29 colon
SN12C renal = test system: SN12C renal
SK-MEL-28 melanoma = test system: SK-MEL-28 melanoma
CAKI-1 renal = test system: CAKI-1 renal
SNB-75 CNS = test system: SNB-75 CNS
A549 NSCLC = test system: A549 NSCLC
MCF7 breast = test system: MCF7 breast
NCI-H23 lung = test system: NCI-H23 lung
SF-539 CNS = test system: SF-539 CNS

SMILES	GI50 (IGROV1 ovarian) [µM]	TGI (IGROV1 ovarian) [µM]	GI50 (HT29 colon) [µM]	TGI (HT29 colon) [µM]	GI50 (SN12C renal) [µM]	TGI (SN12C renal) [µM]	GI50 (SK-MEL-28 melanoma) [µM]	TGI (SK-MEL-28 melanoma) [µM]	GI50 (CAKI-1 renal) [µM]	TGI (CAKI-1 renal) [µM]	GI50 (SNB-75 CNS) [µM]	TGI (SNB-75 CNS) [µM]	GI50 (A549 NSCLC) [µM]	TGI (A549 NSCLC) [µM]	GI50 (MCF7 breast) [µM]	TGI (MCF7 breast) [µM]	GI50 (NCI-H23 lung) [µM]	TGI (NCI-H23 lung) [µM]	TGI (SF-539 CNS) [µM]	GI50 (SF-539 CNS) [µM]
Cc1nc(N)sc1-c1ccnc(Nc2ccc(N3CCOCC3)cc2)n1	0.846	> 33.7	2.11	> 100	2.24	> 100	4.22	> 100	0.517	3.05	1.38	5.57	1.13	> 100	1.43	> 100	1.6	> 100		
NC(N)=NCCN=C(N)N		> 100		> 100		> 100		> 100		> 100		> 100		> 100		> 100		> 100	> 100	
O=[N+]([O-])c1ccc(C=C2C(Cl)=C(Cl)C(Cl)=C2Cl)cc1	2	4.41	2.64	7.14	3.02	> 100	3.81	74.4	1.11	3.4	2.05	6.98			2.78	10.9	2.05	5.16	7.09	2.54
Cc1ccc2c(n1)C(=O)c1[nH]c3ccccc3c1C2=O	0.0819	4.3	3.05	> 100	2	6.06	3.87	> 100	2.37	> 100			1.61	4.37	0.586	2.63	0.687	3.79	5.11	2.15
NC(Cc1cccc([N+](=O)[O-])c1)C(=O)O (centres undefined)		> 100		> 100		> 100		> 100		> 100				> 100		> 100		> 100	> 100	
COc1ccc(C2CC(c3cccc(Nc4ccncc4)c3)=NN2c2cc(Cl)cc(Cl)c2)cc1 (centres undefined)	1.69	3.35	2.26	5.46	1.62	3.16	1.74	3.36	1.62	3.1	2.09	11.7			1.67	3.3	1.79	3.44	3.14	1.68
CCC[CH2][Ge]([CH2]CCC)([CH2]CCC)[O]C(=O)CC(=O)c1ccccc1	2.2	13.9	0.64	11.1	0.538	15	4.48	19.1	6.37	20.6			0.735	15.9			0.28	14.8	6.17	1.57
NCCCNc1nc2ccccc2c2c(=O)c3cc(OC(F)(F)F)ccc3sc12	1.46	2.9			1.66	3.14	1.8	3.24	1.58	2.93	1.39	2.73					1.62	3.09	3.15	1.68
NNC(N)Nc1ccccc1 (centres undefined)		> 100		> 100		> 100		> 100		> 100				> 100		> 100		> 100	> 100	
NC(CCCCP(=O)(O)O)C(=O)O (centres undefined)		> 100		> 100		> 100		> 100		> 100		> 100		> 100				> 100	> 100	
CC1CC=CC(O)C1 (centres undefined)		> 100		> 100		> 100		> 100				> 100		> 100		> 100		> 100	> 100	
O=C(OC(=O)n1ccc2ccccc21)n1ccc2ccccc21		> 100		> 100		> 100		> 100		> 100		> 100		> 100		> 100		> 100	> 100	
O=NN(CCCl)C(=O)NC1CCSc2ccccc21 (centres undefined)		> 100		> 100		> 100		> 94.1		> 100		> 100		> 100		> 100		> 100	> 74.5	
C[C@]12C=CC(=O)C=C1CC[C@H]1[C@@H]3C[C@@H](O)[C@](O)(C(=O)CO)[C@@]3(C)C[C@H](O)[C@@]12F		> 100		> 100		> 100		> 100		> 100		> 100		> 100				> 100	> 100	
COc1ccccc1C1C(C(=O)O)=C(CO)Oc2cc3c(cc21)OCO3 (centres undefined)		> 100		> 100		> 100		> 100		> 100		> 100						> 100	> 100	
Cc1ccc(S(=O)(=O)Oc2cc(-c3ccccc3)nc3ccccc23)cc1		22.2		7.54		> 41.5		68.7				6.93		> 78.4		> 48.4		12.2	4.87	
CC(=O)Oc1cccc2c(/C=N/NC(N)=S)ncc(C)c12		20.9		21.8		17.1		> 48.4		15.6		> 55.6		25.6		3.32		13.4	1.98	
